Reference: patent publication US7161032B2, “Sulfonamide derivatives, insecticides for agricultural and horticultural use, and usage thereof” (Nihon Nohyaku Co., Ltd., priority 2002, dated 2007)

How the values were obtained:
Type in all cases: in vivo
[1] = tested on: Smaller Tea Tortrix (Adoxophyes sp.); assay: Insecticidal effect on smaller tea tortrix (Test Example 3): tea leaves immersed in 50 ppm liquid chemical; settings: smaller tea tortrix (Adoxophyes sp.) larvae, 8 days after inoculation, 25° C., humidity 70%
Description: Tea leaves were immersed for about 30 seconds in a liquid chemical prepared by diluting a preparation containing each compound listed in Table 1 or 2 as an active ingredient to adjust the concentration to 50 ppm. After air-dryness, the tea leaves were placed in a plastic Petri dish with a diameter of 9 cm and inoculated with larvae of smaller tea tortrix, after which the dish was allowed to stand in a room thermostated at 25° C. and having a humidity of 70%. Eight days after the inoculation, the dead and alive were counted and the insecticidal effect was judged according to the criterion shown in Test Example 1. The test was carried out with triplicate groups of 10 insects.

[2] = tested on: Common Cutworm (Spodoptera litura); assay: Insecticidal effect on common cutworm (Test Example 2): cabbage leaf piece immersed in 50 ppm liquid chemical; settings: common cutworm (Spodoptera litura) second-instar larvae, 8 days after inoculation, 25° C.
Description: A piece of cabbage leaf (cultivar: Shikidori) was immersed for about 30 seconds in a liquid chemical prepared by diluting a preparation containing each compound listed in Table 1 or 2 as an active ingredient to adjust the concentration to 50 ppm. After air-dryness, it was placed in a plastic Petri dish with a diameter of 9 cm and inoculated with second-instar larvae of common cutworm, after which the dish was closed and then allowed to stand in a room thermostated at 25° C. Eight days after the inoculation, the dead and alive were counted. The mortality was calculated according to the following equation and the insecticidal effect was judged according to the criterion shown in Test Example 1. The test was carried out with triplicate groups of 10 insects. [formula]

[3] = tested on: Diamond Back Moth (Plutella xylostella); assay: Insecticidal effect on diamond back moth (Test Example 1): egg-bearing Chinese cabbage seedling immersed in 50 ppm liquid chemical
Description: Adult diamond back moths were released and allowed to oviposit on a Chinese cabbage seedling. Two days after the release, the seedling having the eggs deposited thereon was immersed for about 30 seconds in a liquid chemical prepared by diluting a preparation containing each compound listed in Table 1 or 2 as an active ingredient to adjust the concentration to 50 ppm. After air-dryness, it was allowed to stand in a room thermostated at 25° C. Six days after the immersion, the hatched insects were counted. The mortality was calculated according to the following equation and the insecticidal effect was judged according to the criterion shown below. The test was carried out with triplicate groups of 10 insects. [formula]

SMILES	Insecticidal effect (mortality grade), Test Example 3 [1]	Insecticidal effect (mortality grade), Test Example 2 [2]	Insecticidal effect (mortality grade), Test Example 1 [3]
Cc1cc(C(F)(C(F)(F)F)C(F)(F)F)ccc1NC(=O)c1cccc(I)c1C(=O)N[C@@H](C)CS(=O)(=O)NCc1ccccc1 [1-146]	A (Mortality 100%)	A (Mortality 100%)	A (Mortality 100%)
Cc1cc(C(F)(C(F)(F)F)C(F)(F)F)ccc1NC(=O)c1cccc(I)c1C(=O)NC(C)CS(=O)(=O)N1CCSCC1 (stereo not drawn) [1-55]	A (Mortality 100%)	A (Mortality 100%)	A (Mortality 100%)
CCNS(=O)(=O)CC(C)NC(=O)c1c(Br)cccc1C(=O)Nc1ccc(C(F)(C(F)(F)F)C(F)(F)F)cc1C (stereo not drawn) [1-212]	A (Mortality 100%)	A (Mortality 100%)	A (Mortality 100%)
COc1ccc(CNS(=O)(=O)CC(C)NC(=O)c2c(I)cccc2C(=O)Nc2ccc(C(F)(C(F)(F)F)C(F)(F)F)cc2C)cc1 (stereo not drawn) [1-35]	A (Mortality 100%)	A (Mortality 100%)	A (Mortality 100%)
Cc1cc(C(F)(C(F)(F)F)C(F)(F)F)ccc1NC(=O)c1cccc(I)c1C(=O)NC(C)(C)CS(=O)(=O)N1CC[S+]([O-])CC1 [1-59]	E (Mortality less than 50%)	A (Mortality 100%)	A (Mortality 100%)
CCNS(=O)(=O)CC(C)NC(=O)c1ccccc1C(=O)Nc1ccc(C(F)(C(F)(F)F)C(F)(F)F)cc1C (stereo not drawn) [1-207]	E (Mortality less than 50%)	A (Mortality 100%)	A (Mortality 100%)
CCCNS(=O)(=O)CC(C)NC(=O)c1c(Br)cccc1C(=O)Nc1ccc(C(F)(C(F)(F)F)C(F)(F)F)cc1C (stereo not drawn) [1-215]	A (Mortality 100%)	A (Mortality 100%)	A (Mortality 100%)
CSCCNS(=O)(=O)CC(C)(C)NC(=O)c1c(I)cccc1C(=O)Nc1ccc(C(F)(F)C(F)(F)F)cc1C [1-304]	A (Mortality 100%)	A (Mortality 100%)	A (Mortality 100%)
Cc1cc(C(F)(C(F)(F)F)C(F)(F)F)ccc1NC(=O)c1cccc(I)c1C(=O)N[C@@H](C)CS(=O)(=O)N[C@@H](C)C[S+](C)[O-] (stereo partly drawn) [1-148]	A (Mortality 100%)	A (Mortality 100%)	A (Mortality 100%)
Cc1cc(C(F)(C(F)(F)F)C(F)(F)F)ccc1NC(=O)c1cccc(I)c1C(=O)NC(C)(C)CS(=O)(=O)NCCS(C)(=O)=O [1-83]	A (Mortality 100%)	A (Mortality 100%)	A (Mortality 100%)
Cc1cc(C(F)(C(F)(F)F)C(F)(F)F)ccc1NC(=O)c1cccc(I)c1C(=O)NC(C)(C)CS(N)(=O)=O [1-175, 3-iodo-N^1-{2-methyl-4-[1,2,2,2-tetrafluoro-1-(trifluoromethyl)ethyl]phenyl}-N^2-(2-sulfamoyl-1,1-dimethylethyl)phthalamide]	A (Mortality 100%)	A (Mortality 100%)	A (Mortality 100%)
CNS(=O)(=O)CC(C)NC(=O)c1c(I)cccc1C(=O)Nc1ccc(C(F)(C(F)(F)F)C(F)(F)F)cc1C (stereo not drawn) [1-2]	A (Mortality 100%)	A (Mortality 100%)	A (Mortality 100%)
CCNC(=O)C(C)NS(=O)(=O)CC(C)NC(=O)c1c(I)cccc1C(=O)Nc1ccc(C(F)(C(F)(F)F)C(F)(F)F)cc1C (stereo not drawn) [1-104]	A (Mortality 100%)	A (Mortality 100%)	A (Mortality 100%)
Cc1cc(C(F)(C(F)(F)F)C(F)(F)F)ccc1NC(=O)c1cccc(I)c1C(=O)NC(C)(C)CS(=O)(=O)NCC[S+](C)[O-] (stereo not drawn) [1-82]	A (Mortality 100%)	A (Mortality 100%)	A (Mortality 100%)
Cc1cc(C(F)(C(F)(F)F)C(F)(F)F)ccc1NC(=O)c1cccc(I)c1C(=O)NC(C)CS(=O)(=O)NC(C)C(N)=O (stereo not drawn) [1-103]	A (Mortality 100%)	A (Mortality 100%)	A (Mortality 100%)
CC[S+]([O-])CCNS(=O)(=O)CC(C)(C)NC(=O)c1c(I)cccc1C(=O)Nc1ccc(C(F)(F)C(F)(F)F)cc1C (stereo not drawn) [1-308]	A (Mortality 100%)	A (Mortality 100%)	A (Mortality 100%)
CCN(CC)S(=O)(=O)CC(C)(C)NC(=O)c1c(I)cccc1C(=O)Nc1ccc(OC(F)(F)F)cc1Cl [1-286]	E (Mortality less than 50%)	A (Mortality 100%)	A (Mortality 100%)
COc1ccccc1NS(=O)(=O)CC(C)NC(=O)c1c(I)cccc1C(=O)Nc1ccc(C(F)(C(F)(F)F)C(F)(F)F)cc1C (stereo not drawn) [1-108]	A (Mortality 100%)	A (Mortality 100%)	A (Mortality 100%)
Cc1cc(C(F)(C(F)(F)F)C(F)(F)F)ccc1NC(=O)c1cccc(I)c1C(=O)NC(C)CS(=O)(=O)NCc1ccccc1Cl (stereo not drawn) [1-24]	A (Mortality 100%)	A (Mortality 100%)	A (Mortality 100%)
CCN(CC)S(=O)(=O)CC(C)(C)NC(=O)c1c(I)cccc1C(=O)Nc1ccc(Cl)c(Cl)c1Cl [1-268]	A (Mortality 100%)	A (Mortality 100%)	A (Mortality 100%)
Cc1cc(C(F)(C(F)(F)F)C(F)(F)F)ccc1NC(=O)c1cccc(I)c1C(=O)NC(C)CS(=O)(=O)NCCO (stereo not drawn) [1-72]	A (Mortality 100%)	A (Mortality 100%)	A (Mortality 100%)
CSC[C@H](C)NS(=O)(=O)C[C@H](C)NC(=O)c1c(I)cccc1C(=O)Nc1ccc(C(F)(C(F)(F)F)C(F)(F)F)cc1C [1-147]	A (Mortality 100%)	A (Mortality 100%)	A (Mortality 100%)
Cc1cc(C(C(F)(F)F)C(F)(F)F)ccc1NC(=O)c1cccc(I)c1C(=O)NC(C)(C)CS(=O)(=O)N1CCCC1 [1-345]	A (Mortality 100%)	A (Mortality 100%)	A (Mortality 100%)
Cc1cc(C(F)(C(F)(F)F)C(F)(F)F)ccc1NC(=O)c1cccc(I)c1C(=O)NC(C)CS(=O)(=O)NC(C)(C)C (stereo not drawn) [1-14]	A (Mortality 100%)	A (Mortality 100%)	A (Mortality 100%)
CSCCNS(=O)(=O)CC(C)NC(=O)c1c(I)cccc1C(=O)Nc1ccc(C(F)(C(F)(F)F)C(F)(F)F)cc1C (stereo not drawn) [1-75]	A (Mortality 100%)	A (Mortality 100%)	A (Mortality 100%)
Cc1cc(C(F)(C(F)(F)F)C(F)(F)F)ccc1NC(=O)c1cccc(I)c1C(=O)NC(C)(C)CS(=O)(=O)N1CC[S+]([O-])CC1C (stereo not drawn) [1-62]	A (Mortality 100%)	A (Mortality 100%)	A (Mortality 100%)
CSCC(C)(C)NS(=O)(=O)CC(C)NC(=O)c1c(I)cccc1C(=O)Nc1ccc(C(F)(C(F)(F)F)C(F)(F)F)cc1C (stereo not drawn) [1-94]	A (Mortality 100%)	A (Mortality 100%)	A (Mortality 100%)
